Laboratory results from patent US20140080772A1, “TREATMENTS FOR MELANOMA” (The Board of Regents of the University of Texas System, priority 2012, published 2014).
Where two headings read alike, the source gives them in different places.

Key:
KU812 = conditions: 20 mg/kg/day; cited from earlier work
WT Bcr-Abl [1] = target: T1, WT Bcr-Abl (Homo sapiens, UniProt P00519); conditions: read-out: IC50, Bcr-Abl autophosphorylation and downstream kinase activity; K562 cells; cited from earlier work
Target sequence in this assay (P00519 with tags, fused parts or gaps): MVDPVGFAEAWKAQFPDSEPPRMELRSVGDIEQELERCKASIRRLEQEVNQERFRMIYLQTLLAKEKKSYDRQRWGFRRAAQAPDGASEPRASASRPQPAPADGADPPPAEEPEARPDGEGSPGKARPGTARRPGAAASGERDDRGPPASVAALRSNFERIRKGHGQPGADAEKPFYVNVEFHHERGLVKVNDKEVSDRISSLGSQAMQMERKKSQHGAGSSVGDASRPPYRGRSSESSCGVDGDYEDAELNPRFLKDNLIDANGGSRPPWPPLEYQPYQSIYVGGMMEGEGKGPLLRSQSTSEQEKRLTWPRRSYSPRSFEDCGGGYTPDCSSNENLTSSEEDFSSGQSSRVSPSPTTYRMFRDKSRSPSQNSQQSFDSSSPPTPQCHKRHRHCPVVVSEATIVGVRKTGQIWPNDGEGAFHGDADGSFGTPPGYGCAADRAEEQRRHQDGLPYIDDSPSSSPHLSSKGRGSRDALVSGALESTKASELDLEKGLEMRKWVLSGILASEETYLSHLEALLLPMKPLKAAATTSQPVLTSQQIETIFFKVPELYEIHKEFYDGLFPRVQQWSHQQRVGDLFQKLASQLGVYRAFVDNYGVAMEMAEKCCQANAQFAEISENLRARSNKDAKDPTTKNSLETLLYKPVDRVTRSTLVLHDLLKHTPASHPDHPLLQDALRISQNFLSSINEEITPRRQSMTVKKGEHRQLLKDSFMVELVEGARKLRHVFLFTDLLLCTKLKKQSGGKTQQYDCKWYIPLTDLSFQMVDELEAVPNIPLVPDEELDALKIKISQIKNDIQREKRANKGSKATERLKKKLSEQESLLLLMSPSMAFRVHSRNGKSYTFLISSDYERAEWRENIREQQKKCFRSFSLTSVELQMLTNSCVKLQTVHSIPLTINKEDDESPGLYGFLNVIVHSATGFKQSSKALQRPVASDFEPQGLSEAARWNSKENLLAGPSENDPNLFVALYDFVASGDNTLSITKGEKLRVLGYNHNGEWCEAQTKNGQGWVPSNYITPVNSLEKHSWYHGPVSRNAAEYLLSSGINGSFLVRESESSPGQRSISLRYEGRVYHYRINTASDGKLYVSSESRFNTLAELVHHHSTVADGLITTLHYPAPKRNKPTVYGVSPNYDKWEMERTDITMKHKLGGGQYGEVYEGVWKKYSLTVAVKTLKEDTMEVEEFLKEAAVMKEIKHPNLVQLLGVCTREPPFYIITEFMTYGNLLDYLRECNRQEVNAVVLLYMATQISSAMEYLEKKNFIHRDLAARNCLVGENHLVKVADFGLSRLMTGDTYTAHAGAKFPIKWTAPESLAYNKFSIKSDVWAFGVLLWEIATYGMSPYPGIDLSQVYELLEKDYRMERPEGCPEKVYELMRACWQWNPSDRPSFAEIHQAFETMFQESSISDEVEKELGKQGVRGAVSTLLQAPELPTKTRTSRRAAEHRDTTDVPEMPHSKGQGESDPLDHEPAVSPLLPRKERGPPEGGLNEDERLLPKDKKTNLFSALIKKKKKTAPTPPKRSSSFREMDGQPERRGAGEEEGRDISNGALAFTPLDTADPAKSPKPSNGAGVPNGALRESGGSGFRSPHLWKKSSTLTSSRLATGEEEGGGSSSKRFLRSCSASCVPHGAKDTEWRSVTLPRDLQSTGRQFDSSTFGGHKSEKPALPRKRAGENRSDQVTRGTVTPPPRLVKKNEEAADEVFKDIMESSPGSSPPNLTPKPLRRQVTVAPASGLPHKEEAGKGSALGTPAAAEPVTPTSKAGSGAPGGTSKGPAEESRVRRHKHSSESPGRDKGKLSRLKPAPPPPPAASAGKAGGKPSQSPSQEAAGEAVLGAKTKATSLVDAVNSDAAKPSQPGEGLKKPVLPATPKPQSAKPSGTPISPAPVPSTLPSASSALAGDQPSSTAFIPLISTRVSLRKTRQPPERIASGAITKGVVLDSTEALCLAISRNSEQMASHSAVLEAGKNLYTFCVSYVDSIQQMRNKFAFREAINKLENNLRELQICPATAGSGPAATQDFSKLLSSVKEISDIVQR

WT Bcr-Abl [2] = target: T1, WT Bcr-Abl; conditions: read-out: IC50, Bcr-Abl autophosphorylation and downstream kinase activity; 293T cells; cited from earlier work
Target sequence in this assay (P00519 28-1130 limits assumed): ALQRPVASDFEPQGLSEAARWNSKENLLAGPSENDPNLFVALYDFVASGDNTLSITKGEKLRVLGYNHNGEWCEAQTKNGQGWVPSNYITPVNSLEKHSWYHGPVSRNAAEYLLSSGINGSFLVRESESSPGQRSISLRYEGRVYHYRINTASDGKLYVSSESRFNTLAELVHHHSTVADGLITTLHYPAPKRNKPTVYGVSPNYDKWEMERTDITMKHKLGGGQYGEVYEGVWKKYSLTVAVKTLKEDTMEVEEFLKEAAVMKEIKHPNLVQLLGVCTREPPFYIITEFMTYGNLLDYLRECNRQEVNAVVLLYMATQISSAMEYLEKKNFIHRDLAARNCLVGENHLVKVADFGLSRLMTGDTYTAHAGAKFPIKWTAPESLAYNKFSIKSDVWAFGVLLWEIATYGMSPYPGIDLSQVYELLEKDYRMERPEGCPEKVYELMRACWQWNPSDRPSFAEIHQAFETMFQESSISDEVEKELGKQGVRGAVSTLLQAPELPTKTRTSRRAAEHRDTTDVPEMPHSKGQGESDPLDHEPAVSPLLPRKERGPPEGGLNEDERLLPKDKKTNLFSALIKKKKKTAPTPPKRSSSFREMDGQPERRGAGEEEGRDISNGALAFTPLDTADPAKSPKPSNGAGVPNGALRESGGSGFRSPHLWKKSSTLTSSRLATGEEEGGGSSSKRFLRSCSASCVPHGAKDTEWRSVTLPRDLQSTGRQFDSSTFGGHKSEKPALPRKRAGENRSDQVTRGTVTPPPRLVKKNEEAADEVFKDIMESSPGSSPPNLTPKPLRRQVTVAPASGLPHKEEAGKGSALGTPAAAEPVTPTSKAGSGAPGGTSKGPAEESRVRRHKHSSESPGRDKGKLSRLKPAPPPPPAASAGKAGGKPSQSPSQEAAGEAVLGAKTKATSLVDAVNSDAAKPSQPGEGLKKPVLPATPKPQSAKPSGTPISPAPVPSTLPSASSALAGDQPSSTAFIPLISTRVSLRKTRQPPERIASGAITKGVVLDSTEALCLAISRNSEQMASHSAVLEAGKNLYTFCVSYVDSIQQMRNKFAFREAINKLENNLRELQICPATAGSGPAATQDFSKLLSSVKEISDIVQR

[3] = mouse, in vivo; cited from earlier work
[4] = system: primary melanomas (M715, M711, M741 and M405); experiment: Dose response viability assay (CellTiter-Glo) on primary human melanoma cells; type: cell-based; conditions: 72 hr, triplicate
Procedure: (§1) Melanomas and hUCB were treated with 50 μM of cardiac glycosides or DMSO for 72 h in triplicates. Viability was measured with CellTiter-Glo. […] All error bars denote SD.
(§2) In these in vitro assays, cells were treated with various doses of cardiac glycosides or DMSO for 72 hr in triplicate. Viability was measured with CellTiter-Glo.
(§3) Again, cells were treated in vitro with various doses of RO 31-8220 or DMSO for 72 hr in triplicates. Viability was measured with CellTiter-Glo.

[5] = system: human melanocytes (hMEL) and human umbilical cord blood cells (hUCB)
Procedure: as §1, §2, §3

[6] = in vivo; cited from earlier work
[7] = system: M481 metastatic melanoma cells; experiment: M481 melanoma xenograft tumor growth in NSG mice; type: in vivo
Procedure: M481 metastatic melanoma cells were implanted in s.c. tissue on right flanks of NSG mice. […] Tumors were measured every 2-3 day with calipers.
(FIG. 6A) M481 efficiently metastasizing melanoma cells were implanted in s.c. tissue on right flanks of NSG mice. […] Tumors were measured every 2-3 day with calipers. Mean±SD is reported.
Subcutaneous injections of human melanoma cells were performed in each flank and the interscapular region of NOD.CB17-Prkdcscid Il2rgtm1Wjl/SzJ (NOD/SCID IL2Rγ^null, NSG) mice (Jackson Laboratories) in a final volume of 50 μl.
In these experiments metastatic melanoma cells were implanted in s.c. tissue on right flanks of NSG mice. […] Tumors were measured every 2-3 day with calipers and bioluminescence imaging was performed at day 14.
To address whether inhibition of Lyn kinase can block the ability of melanoma cells to grow in our xenograft model, they performed an in vivo drug treatment. NSG mice were injected with a 100-cell dose of a metastatic melanoma, M481, which expressed a GFP-luciferase construct. […] We tested two different doses, 4 mg/kg body mass/day and 20 mg/kg/day. Control mice were injected with 5% DMSO solution.

PKCα = PKCα (Homo sapiens, UniProt P17252); conditions: cited from earlier work
MAPKAP-K1b = MAPKAP-K1b (Homo sapiens, UniProt P51812); conditions: cited from earlier work
S6K1 = S6K1 (Homo sapiens, UniProt P23443); conditions: cited from earlier work
[8] = system: JNK, glycogen synthase, MAPK, ERK2; conditions: rat adipocytes and L6 myotubes; cited from earlier work
[9] = system: voltage-dependent Na+ channels; conditions: cited from earlier work
[10] = system: M214 metastatic melanoma cells; type: in vivo, NSG mice; conditions: digitoxin 0.5 mg/kg/day; dacarbazine 5 mg/kg every other day; alone or in combination
Procedure: M214 metastatic melanoma cells were implanted in s.c. tissue on right flanks of NSG mice. When tumors became palpable, mice were randomized to four different treatments. […] Control mice received equivalent volume of DMSO. […] Tumors were measured every 2-3 day with calipers. Mean^±SD is reported (*P<0.05, **P<0.005, ***P<0.0005, ****P<0.0001, ns: not significant; two-tailed Student's t test). […] The statistical significance of differences between mean values was assessed by the Student's t-test.
In these experiments, metastatic melanoma cells were injected subcutaneously in the right flanks of immunocompromised NSG mice. When tumors became palpable, mice were randomized to four different treatments. […] Control mice received equivalent volume of DMSO.

[11] = 72 hr, triplicate, CellTiter-Glo

Sequence of MAPKAP-K1b (P51812 whole entry, species assumed): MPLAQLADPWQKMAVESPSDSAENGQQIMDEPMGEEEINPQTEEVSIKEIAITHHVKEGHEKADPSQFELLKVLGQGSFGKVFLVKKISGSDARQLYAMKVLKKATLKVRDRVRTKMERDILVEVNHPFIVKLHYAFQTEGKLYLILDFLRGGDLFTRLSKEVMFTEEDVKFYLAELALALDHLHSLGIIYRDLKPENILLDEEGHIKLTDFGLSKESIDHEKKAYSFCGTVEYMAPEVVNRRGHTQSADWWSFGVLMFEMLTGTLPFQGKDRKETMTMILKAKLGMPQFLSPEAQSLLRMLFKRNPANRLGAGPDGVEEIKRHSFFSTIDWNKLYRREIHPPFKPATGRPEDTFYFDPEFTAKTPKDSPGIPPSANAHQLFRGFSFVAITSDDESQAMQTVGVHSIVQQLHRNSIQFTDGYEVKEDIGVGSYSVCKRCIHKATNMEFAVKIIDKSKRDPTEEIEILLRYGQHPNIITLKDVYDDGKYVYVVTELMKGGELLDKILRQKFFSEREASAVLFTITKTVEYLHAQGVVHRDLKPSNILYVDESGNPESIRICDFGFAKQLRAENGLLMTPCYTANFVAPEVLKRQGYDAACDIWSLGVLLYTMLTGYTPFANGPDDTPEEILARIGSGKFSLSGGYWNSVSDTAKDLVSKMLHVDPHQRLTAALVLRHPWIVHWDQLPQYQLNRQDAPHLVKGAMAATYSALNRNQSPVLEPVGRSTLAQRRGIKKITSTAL
Sequence of S6K1 (P23443 whole entry, species assumed): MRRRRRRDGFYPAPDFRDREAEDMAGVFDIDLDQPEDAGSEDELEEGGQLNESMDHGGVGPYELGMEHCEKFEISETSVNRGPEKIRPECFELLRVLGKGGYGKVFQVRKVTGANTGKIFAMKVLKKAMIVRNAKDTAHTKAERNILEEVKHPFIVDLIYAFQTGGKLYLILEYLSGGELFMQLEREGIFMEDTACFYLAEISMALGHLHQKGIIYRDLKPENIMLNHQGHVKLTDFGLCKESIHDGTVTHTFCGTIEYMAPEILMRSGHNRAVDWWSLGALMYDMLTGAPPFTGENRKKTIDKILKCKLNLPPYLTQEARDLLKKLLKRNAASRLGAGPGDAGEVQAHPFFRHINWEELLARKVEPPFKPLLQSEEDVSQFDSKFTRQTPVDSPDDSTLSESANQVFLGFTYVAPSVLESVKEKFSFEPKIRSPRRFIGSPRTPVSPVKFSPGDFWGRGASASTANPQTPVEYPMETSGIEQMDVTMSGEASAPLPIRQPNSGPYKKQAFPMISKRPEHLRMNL

Cc1ccc(NC(=O)c2ccc(CN3CC[C@H](N(C)C)C3)c(C(F)(F)F)c2)cc1Nc1nccc(-c2cncnc2)n1 [Bafetinib, bafetinib]
adverse effects (KU812): without adverse effects | IC50 (WT Bcr-Abl [1]): 11 nM | IC50 (WT Bcr-Abl [2]): 22 nM | bioavailability value (BA) [3]: 32% | maximal tolerated dose [3]: 200 mg/kg/day

C[C@H]1O[C@@H](O[C@H]2[C@@H](O)C[C@H](O[C@H]3[C@@H](O)C[C@H](O[C@H]4CC[C@@]5(C)[C@H](CC[C@@H]6[C@@H]5C[C@@H](O)[C@]5(C)[C@@H](C7=CC(=O)OC7)CC[C@]65O)C4)O[C@@H]3C)O[C@@H]2C)C[C@H](O)[C@@H]1O [digoxin]
toxicity to primary melanomas (viability) [4]: toxic to all tested primary melanomas | toxicity to normal cells (viability) [5]: not to normal cells | half-life [6]: about 36 hours | plasma concentration at which adverse effects are rare [6]: < 0.8 ng/mL

C[C@H]1O[C@@H](O[C@H]2[C@@H](O)C[C@H](O[C@H]3[C@@H](O)C[C@H](O[C@H]4CC[C@@]5(C)[C@H](CC[C@@H]6[C@@H]5CC[C@]5(C)[C@@H](C7=CC(=O)OC7)[C@@H](O)C[C@]65O)C4)O[C@@H]3C)O[C@@H]2C)C[C@H](O)[C@@H]1O [gitoxin]
toxicity to primary melanomas (viability) [4]: toxic to all tested primary melanomas | toxicity to normal cells (viability) [5, 11]: not to normal cells

Cn1cc(C2=C(c3cn(CCCSC(=N)N)c4ccccc34)C(=O)NC2=O)c2ccccc21 [RO 31-8220]
toxicity to primary melanomas (viability) [4]: toxic to all tested primary melanomas | toxicity to normal cells (viability) [5, 11]: not to normal cells | tumor growth ([7]; RO 31-8220 3 mg/kg i.p. vs DMSO): inhibited the growth | IC50 (PKCα): 33 nM | IC50 (MAPKAP-K1b): 3 nM | IC50 (S6K1): 38 nM | effect on JNK and glycogen synthase [8]: Activates | effect on MAPK and ERK2 [8]: inhibits | inhibition of voltage-dependent Na+ channels [9]: in the micromolar range

C[C@H]1O[C@@H](O[C@H]2[C@@H](O)C[C@H](O[C@H]3[C@@H](O)C[C@H](O[C@H]4CC[C@@]5(C)[C@H](CC[C@@H]6[C@@H]5CC[C@]5(C)[C@@H](C7=CC(=O)OC7)CC[C@]65O)C4)O[C@@H]3C)O[C@@H]2C)C[C@H](O)[C@@H]1O [digitoxin]
toxicity to primary melanomas (viability) [4]: toxic to all tested primary melanomas | toxicity to normal cells (viability) [5, 11]: not to normal cells | tumor growth ([7]; digitoxin 0.5 mg/kg i.p. vs DMSO): inhibited the growth | growth of human melanoma xenografts [10]: slowed the growth
